Positions of bridges follow the written chain, without caps; N, C: chain ends. Non-standard residues stand in square brackets, D forms with d. Residues, ends and D or L forms follow the SMILES beside them. *: point of attachment. X1 = CC(=O)O[C@H]1C(=O)[C@@]2(C)[C@H]([C@H](OC(=O)c3ccccc3)[C@]3(O)C[C@H](OC(=O)[C@H](OC(=O)OCc4ccc(N*)cc4)[C@@H](NC(=O)c4ccccc4)c4ccccc4)C(C)=C1C3(C)C)[C@]1(OC(C)=O)CO[C@@H]1C[C@@H]2O; Cit = NC(=O)NCCC[C@H](N)C(=O)O
system: SJSA-1; assay: Cytotoxicity against human SJSA1 cells expressing GRP78 after 6 hrs by MTT assay; assay type: functional, cell-based; conditions: SJSA-1, 6 h

Compared with CC(=O)N[C@H]1CSSC[C@@H](C(=O)N[C@H](C(=O)N[C@@H](CCCNC(N)=O)C(=O)N[C@H](C(=O)N[C@@H](CCCNC(N)=O)C(=O)Nc2ccc(COC(=O)O[C@@H](C(=O)O[C@H]3C[C@@]4(O)[C@@H](OC(=O)c5ccccc5)[C@@H]5[C@]6(OC(C)=O)CO[C@@H]6C[C@H](O)[C@@]5(C)C(=O)[C@H](OC(C)=O)C(=C3C)C4(C)C)[C@@H](NC(=O)c3ccccc3)c3ccccc3)cc2)C(C)C)C(C)C)NC(=O)[C@H](C(C)C)NC(=O)[C@H](CCCNC(=N)N)NC(=O)[C@H](C(C)C)NC(=O)[C@H](Cc2ccc(O)cc2)NC(=O)CNC(=O)CNC(=O)[C@@H]2CCCN2C(=O)[C@H](CC(C)C)NC(=O)[C@H](C)NC(=O)[C@H](C(C)C)NC(=O)[C@H]([C@@H](C)O)NC1=O (Ac-CTVALPGGYVRVCV[Cit]V[Cit]-X1; disulfide 1-13), CC(=O)O[C@H]1C(=O)[C@@]2(C)[C@H]([C@H](OC(=O)c3ccccc3)[C@]3(O)C[C@H](OC(=O)[C@H](O)[C@@H](NC(=O)c4ccccc4)c4ccccc4)C(C)=C1C3(C)C)[C@]1(OC(C)=O)CO[C@@H]1C[C@@H]2O [PACLITAXEL] is 2.9-fold higher in IC50: 1.1 nM for the first, 3.2 nM for the second. The first is the more potent here.

Work on COc1cccc2c1C(=O)c1c(O)c3c(c(O)c1C2=O)C[C@@](O)(C(=O)CO)C[C@@H]3O[C@H]1C[C@H](N)[C@H](O)[C@H](C)O1 [DOXORUBICIN] yielded an IC50 of 6.2 nM.

From ChEMBL document CHEMBL1141627, “A cell-penetrating peptidic GRP78 ligand for tumor cell-specific prodrug therapy” (Bioorg Med Chem Lett, 2008)
